The values that follow are results of earlier work, collected in patent US9744237B2, “Method and system for effecting changes in pigmented tissue” (priority 2009, dated 2017).

In one data set the test system is tyrosinase. The note with it: for RAb: relative activity of tyrosinase inhibitor, RAb and F not defined in the patent.
The subject of the next data set is uveal melanocytes. The note with it: for growth and melanogenesis of cultured uveal melanocytes: cAMP-deleted medium.

Turning to `O=C1CC(c2ccc(O)cc2O)Oc2cc(O)cc(O)c21` (stereo not shown) [Streppogenin, 5,7,2′,4′-tetrahydroxy-flavavone], in the data set with tyrosinase, the “inhibition mechanism on tyrosinase” value is recorded as “Competitive” and the RAb was 13.6 F. With `Oc1ccc(-c2ccc3cc(O)ccc3c2)c(O)c1` [HNB, 4-(6-hydroxy-2-naphtyl)-1.3-bezendiol], in the data set on tyrosinase, the “tyrosinase inhibitory activity in words” value is on record as “the strongest tyrosinase inhibitor published until now”. Kuraridinol: in the data set with tyrosinase, the “inhibition mechanism on tyrosinase” value is “Non-competetive”.

As for `COc1ccc(OC)c(C(O)C(C)N)c1` (stereo not shown) [Methoxamine], the “growth and melanogenesis of cultured uveal melanocytes” value in the data set with uveal melanocytes is given as “showed no effect”. `OCc1ccc(O)cc1` [p-hydroxybenzyl alcohol]: in the data set with tyrosinase, the “inhibition mechanism on tyrosinase” value was “irreversibly inhibited the enzyme”. For the molecule `COc1c(O)ccc(C2=Cc3ccc(O)cc3OC2)c1OC` [HagininA, 2′,3′-dimethoxy-7,4′-dihdroxyisoflav-3-ene], in the data set with tyrosinase, the “inhibition mechanism on tyrosinase” value is “Non-competitive” and the RAb is on record as 10.1 F. In the case of `OC[C@H]1NC[C@@H](O)[C@@H](O)[C@@H]1O` [deoxymannojirimycin], the “glycosylation, transportation of tyrosinase to the melanosome and melanin synthesis” value in the data set with HM3K0 melanoma cells is “showed inhibition of glycosylation, transportation of tyrosinase to the melanosome and melanin synthesis”. In the case of `N[C@H]1C(O)O[C@H](CO)[C@@H](O)[C@@H]1O` (stereo partly shown) [glucosamine], the “melanogenesis / melanin content / pigmentation” value with B16 melanoma cells was “decreased pigmentation”. On to `O=c1cc(-c2ccc(O)cc2O)oc2cc(O)cc(O)c12` [Norartocarpetin], for which, in the data set on tyrosinase, the “inhibition mechanism on tyrosinase” value was “Competitive” and the RAb is listed as 10.4 F. Take `O=c1c(-c2ccc(O)cc2)coc2c(O)c(O)cc(O)c12` [8-Hydroxygenistein, 5,7,8,4′-tetrahydroxyisoflavone]: in the data set with tyrosinase, the “inhibition mechanism on tyrosinase” value was “Suicide substrate” and the “tyrosinase inhibitory activity in words” value is “the most potent suicide substrate of mushroom tyrosinase until now”. Take `C=C(C)[C@H](CC=C(C)C)Cc1c(O)cc(OC)c(C(=O)/C=C/c2ccc(O)cc2O)c1O` [Kuraridin]: the RAb with tyrosinase was 34.1 F. For `CC(C)NCC(O)c1cc(O)cc(O)c1` (stereo not shown) [metaproterenol], the “growth and melanogenesis of cultured uveal melanocytes” value in the data set on uveal melanocytes is “substantially stimulated growth and melanogenesis”. Take `O=c1c(-c2ccc(O)cc2)coc2cc(O)c(O)cc12` [6-Hydroxydaidzein, 6,7,4′-trihydroxyisoflavone]: in the data set with tyrosinase, the “inhibition mechanism on tyrosinase” value is “Competitive” and the RAb is 6.0 F. For the molecule `COCCNC(=O)COc1ccc(OCCNC[C@H](O)COc2ccccc2)cc1` [Example D7114], the “growth and melanogenesis of cultured uveal melanocytes” value in the data set on uveal melanocytes is on record as “showed no effect”.

In the case of `CNC[C@H](O)c1ccc(O)c(O)c1` [Epinephrine], the “growth and melanogenesis of cultured uveal melanocytes” value with uveal melanocytes is “substantially stimulated growth and melanogenesis”. Turning to `COc1cc(O)c2c(=O)cc(-c3ccc(O)cc3O)oc2c1` [Artocarpetin, 5,2′,4′-trihydroxy-7-methoxyflavone], the RAb with tyrosinase is recorded as under 0.1 F. Take `O=C(/C=C/c1ccc(O)cc1O)c1ccc(O)cc1O` [2,4,2′,4′-Tetrahydroxychalcone]: in the data set on tyrosinase, the “inhibition mechanism on tyrosinase” value is listed as “Competitive” and the RAb is recorded as 2.5 F.

For tunicamycin, the “melanogenesis / melanin content / pigmentation” value with B16 melanoma cells is given as “decreased pigmentation”. Take `Clc1cccc(Cl)c1N=C1NCCN1` [clonidine]: in the data set with uveal melanocytes, the “growth and melanogenesis of cultured uveal melanocytes” value is listed as “showed no effect”. As for `CC(C)=CCc1c(O)ccc(/C=C/C(=O)c2ccc(O)cc2O)c1O` [TMBC, 2,4,2′,4′-tetrahydroxy-3-(3-methy1-2-buteny1)-chalcone], in the data set on tyrosinase, the “inhibition mechanism on tyrosinase” value was “Competitive” and the RAb is 26.1 F. Take `CC(C)NCC(O)c1ccc(O)c(O)c1` (stereo not shown) [isoproterenol]: in the data set with uveal melanocytes, the “growth and melanogenesis of cultured uveal melanocytes” value was “substantially stimulated growth and melanogenesis”. As to `Br.CCN1C[C@]2(OC(=O)c3ccccc3NC(C)=O)CC[C@H](OC)[C@@]34[C@@H]2C[C@@H]([C@@H]13)[C@@]1(O)C[C@H](OC)[C@H]2C[C@@H]4[C@]1(O)[C@H]2OC` [Lappaconitine hydrobromide], the “tyrosinase inhibitory activity in words” value in the data set with tyrosinase is listed as “activity similar to that of kojic acid”. For the molecule `O=C(/C=C/c1c(O)cc(O)cc1O)c1ccc(O)cc1O` [2,4,6,2′,4′-Pentahydroxychalcone], in the data set with tyrosinase, the “inhibition mechanism on tyrosinase” value was “Competitive” and the RAb is on record as 12.0 F. In the case of `O=C(NCc1ccc(O)cc1O)c1cc(O)cc(O)c1` [3,5,2′,4′-Tetrahydfoxyl derivatives], the RAa with tyrosinase (N-Benzylbenzamides, RAa and F not defined in the patent) is on record as 7.4 F.

For the molecule `CC1=C(O)C(=O)C(C)O1` (stereo not shown) [DMHF, 2,5-Dimethyl-4-hydroxy-3(2H)-furanone], the “melanogenesis / melanin content / pigmentation” value in the data set with B16 melanoma cells was “inhibits a-MSH induced melanogenesis”. Consider “Hen egg white lysozyme (HEWL): Hen egg white lysozyme”, for which, in the data set on tyrosinase, the “inhibition mechanism on tyrosinase” value is “reversibly and irreversibly mixed inhibition mechanism”.

For `O=c1c(-c2ccc(O)cc2)coc2c(O)c(O)ccc12` [8-Hydroxydaidzein, 7,8,4′-trihydroxyisoflavone], in the data set on tyrosinase, the “inhibition mechanism on tyrosinase” value is listed as “Suicide substrate”. In the case of `C[C@@H]1O[C@H](C[N+](C)(C)C)C[C@H]1O` [Muscarine], the “growth and melanogenesis of uveal melanocytes” value in the data set with uveal melanocytes (complete medium) is “inhibited the growth and melanogenesis”. Consider `CC(C)NC[C@H](O)COc1ccc(O)cc1` [prenalterol], for which, in the data set with uveal melanocytes, the “growth and melanogenesis of cultured uveal melanocytes” value is “showed no effect”. For the molecule `CC1(C)C=Cc2c(ccc3c2OC[C@@H](c2ccc(O)cc2O)C3)O1` [Glabridine], in the data set with tyrosinase, the “inhibition mechanism on tyrosinase” value is given as “Non-competitive” and the RAb was 15.2 F. Consider `C=CC(C)(C)c1cc(/C=C/C(=O)c2ccc(O)cc2)c(OC)cc1O` [LicochalconeA], for which, in the data set with tyrosinase, the “inhibition mechanism on tyrosinase” value was “Competitive” and the RAb is 5.4 F.

On to `CC(C)(C)NCC(O)c1ccc(O)c(CO)c1` (stereo not shown) [salbutamol], for which the “growth and melanogenesis of cultured uveal melanocytes” value with uveal melanocytes is “substantially stimulated growth and melanogenesis”. Consider `COc1c(CC=C(C)C)c(O)cc2c1C[C@H](c1ccc(O)cc1O)CO2` [GlyasperinC], for which the RAb in the data set on tyrosinase is listed as 27.7 F. `Cc1ccc(C2(C)CC(C)(C)c3ccc(C)cc3O2)c(O)c1` (stereo not shown) [Inulavosin]: in the data set on B16 melanoma cells, the “effect on tyrosinase mRNA / transcription” value is given as “without affecting either the enzymatic activities or the transcription of tyrosinase” and the “melanogenesis / melanin content / pigmentation” value was “reduced the melanin content”.

B1: TGFbeta2: Transforming growth factor-beta2, growth inhibit factor of uveal melanocytes (protein, UniProt P61812 303-414, looked up)
Transforming growth factor …: ALDAAYCFRNVQDNCCLRPLYIDFKRDLGWKWIHEPKGYNANFCAGACPYLWSSDTQHSRVLSLYNTINPEASASPCCVSQDLEPLTILYYIGKTPKIEQLSNMIVKSCKCS
For the molecule B1, the “amount of active TGFbeta2 in aqueous humor sufficient to inhibit the growth of uveal melanocytes” value in the data set on uveal melanocytes is 0.2-0.4 ng m1-1.
